The target in this assay is Lysine-specific histone demethylase 1A (Homo sapiens, UniProt O60341). Nature of the assay: In Vitro Enzyme Inhibition Assay - LSD-1. Here is the method:
The enzymatic assay of LSD1 activity is based on Time Resolved-Fluorescence Resonance Energy Transfer (TR-FRET) detection. […] Plates were read by EnVision Multilabel Reader in TR-FRET mode (excitation at 320 nm, emission at 615 nm and 665 nm) after 1 hour incubation at room temperature.

Bounds are passed on as bounds.

The IC50 is the concentration needed to halve the response being measured. A higher IC50 goes with a need for much substance. As for `COc1ccc(-c2c(-c3ccc(C#N)c(F)c3)cc(C(=O)N3CCC[C@@H](N)C3)n2CCCC(=O)O)cc1` [US10626103, Example 41], the half-maximal inhibitory concentration (IC50) was under 100 nM.

The record behind these values is BindingDB's records for patent US10626103 (Celgene Quanticel Research, 2020).
